Results published in US20150045391A1, “FILANESIB COMBINED WITH POMALIDOMIDE DISPLAYS ENHANCED ANTI-TUMOR ACTIVITY” (Array BioPharma Inc., priority 2013, published 2015).

Columns and labels:
[1] = Plasma exposure after a single IP dose of filanesib and/or pomalidomide (Example 1); assay type: in vivo; details: mouse, male CD-1 mice
Method: Naïve male CD-1 mice were administered a single intraperitoneal (“IP”) bolus dose of filanesib (12.5 mg/kg) and/or pomalidomide (10 mg/kg). Blood was collected at 4, 8, 12, 16, 20 and 24 hours via cardiac puncture, ethylenediaminetetraacetic acid (“EDTA”) plasma was prepared, and concentration of plasma analytes were measured.

[2] = Hematology profiles and body weight in naive CD-1 mice (Example 3); assay type: in vivo; details: for neutropenia / neutrophil loss, in words: hematology analysis in mice
Method: Naïve male CD-1 mice were administered saline vehicle (10 mL/kg, IP, days 1 and 2), filanesib (12.5 mg/kg, IP, days 1 and 2) and/or pomalidomide (1 or 10 mg/kg, IP, QD, days 1-14). Hematology parameters (platelets FIG. 5, lymphocytes FIG. 6, neutrophils FIG. 7) were measured on days 5 and 12, and animal body weight (FIG. 8) was measured on days 1, 3, 5, 8, 10 and 12. For hematology analysis, blood was collected 12 hours following the final dose via cardiac puncture, […] was prepared, and hematology profiles were measured on Hemavet 950FS analyzer.

[3] = test system: RPMI-8226 xenografts; assay: RPMI-8226 dose ranging xenograft (Example 4); assay type: in vivo, mice; details: for % Cure Rate: no palpable tumor 158 days from study start
Method: Female SCID-Beige mice were inoculated subcutaneously with 10×10^6 RPMI-8226 tumor cells in 50% 1×PBS 50% Matrigel™ (100 μL). […] Tumor size and animal body weight were measured on the indicated days over the course of each study. Tumor volume was calculated using the formula, volume=[…]. Percent cure rate indicates an animal has no palpable tumor 158 days from study start.

[4] = test system: RPMI-8226 xenografts; assay: RPMI-8226 xenograft tumor growth inhibition (Example 2); assay type: in vivo, mice; details: for % Complete Response / % Max Body Weight Loss: RPMI-8226, filanesib 12.5 mg/kg IP days 1 and 2, pomalidomide 10 mg/kg IP QD days 1-21; for % Complete Response: SCID-beige mice, no palpable tumor for 2 consecutive measurements; for cure rate: RPMI-8226 model, filanesib 12.5 mg/kg IP D1, 2, pomalidomide 10 mg/kg IP QD, cure = no palpable tumor 100 days from study initiation
Method: (§1) Female SCID-beige mice were inoculated subcutaneously with 10×10^6 H929 (FIG. 2), RPMI-8226 (FIG. 3) or JJN3 (FIG. 4) tumor cells in 50% 1× phosphate buffered saline (“PBS”) 50% Matrigel™ (100 μL). […] Tumor size and animal body weight were measured on the days indicated in FIGS. 2-4 over the course of each study. Tumor volume was calculated using the formula, volume=[…]. Percent complete response indicates an animal has no palapable tumor for 2 consecutive measurements.

[5] = test system: H929 xenografts; assay: H929 xenograft tumor growth inhibition (Example 2); assay type: in vivo, mice; details: for % Complete Response: SCID-beige mice, filanesib 12.5 mg/kg IP days 1 and 2, pomalidomide 10 mg/kg IP QD days 1-21, no palpable tumor for 2 consecutive measurements; for % Max Body Weight Loss: filanesib 12.5 mg/kg IP days 1 and 2, pomalidomide 10 mg/kg IP QD days 1-21
Method: as §1

[6] = Dose limiting toxicity of filanesib; details: in vivo
[7] = test system: JJN3 xenografts; assay: JJN3 xenograft tumor growth inhibition (Example 2); assay type: in vivo, mice; details: for % Complete Response: SCID-beige mice, filanesib 12.5 mg/kg IP days 1 and 2, pomalidomide 10 mg/kg IP QD days 1-19, no palpable tumor for 2 consecutive measurements; for % Max Body Weight Loss: filanesib 12.5 mg/kg IP days 1 and 2, pomalidomide 10 mg/kg IP QD days 1-19
Method: as §1

[8] = Predicted in vitro IC50 of filanesib
[9] = filanesib in plasma, single IP bolus filanesib 12.5 mg/kg alone or with pomalidomide 10 mg/kg
[10] = Day 5, filanesib 12.5 mg/kg IP days 1 and 2 and/or pomalidomide 1 mg/kg IP QD days 1-14
[11] = Day 12, filanesib 12.5 mg/kg IP days 1 and 2 and/or pomalidomide 1 mg/kg IP QD days 1-14
[12] = filanesib 12.5 mg/kg IP days 1 and 2 and/or pomalidomide 1 mg/kg IP QD days 1-14
[13] = filanesib 7.5 mg/kg IP days 1 and 2 and/or pomalidomide 5 mg/kg IP QD days 1-21
[14] = filanesib 12.5 mg/kg IP days 1 and 2 and/or pomalidomide 10 mg/kg IP QD days 1-21
[15] = pomalidomide in plasma, single IP bolus pomalidomide 10 mg/kg alone or with filanesib 12.5 mg/kg
[16] = Day 5, pomalidomide 10 mg/kg IP QD days 1-14, alone or with filanesib 12.5 mg/kg IP days 1 and 2
[17] = Day 12, pomalidomide 10 mg/kg IP QD days 1-14, alone or with filanesib 12.5 mg/kg IP days 1 and 2

| Structure (SMILES) | % Decrease in Cell Counts from Vehicle, Lymphocytes [2, 10] | % Decrease in Cell Counts from Vehicle, Neutrophils [2, 10] | % Decrease in Cell Counts from Vehicle, Platelets [2, 10] | % Decrease in Cell Counts from Vehicle, Lymphocytes [2, 11] | % Decrease in Cell Counts from Vehicle, Neutrophils [2, 11] | % Decrease in Cell Counts from Vehicle, Platelets [2, 11] | % Max Body Weight Loss [2, 12] | neutropenia / neutrophil loss, in words [2] | % Max Body Weight Loss [3, 13] | % Cure Rate [3, 13] | % Max Body Weight Loss [3, 14] | % Cure Rate [3, 14] | % Complete Response [4] | % Max Body Weight Loss [4] | cure rate [4] | % Complete Response [5] | % Max Body Weight Loss [5] | % Complete Response [7] | % Max Body Weight Loss [7] | other results |
| --- | --- | --- | --- | --- | --- | --- | --- | --- | --- | --- | --- | --- | --- | --- | --- | --- | --- | --- | --- | --- |
| CON(C)C(=O)N1N=C(c2cc(F)ccc2F)S[C@@]1(CCCN)c1ccccc1.Cl [filanesib, (S)-2-(3-aminopropyl)-5-(2,5-difluorophenyl)-N-methoxy-N-methyl-2-phenyl-1,3,4-thiadiazole-3(2H)-carboxamide hydrochloride] | 34% | 69% | 9% | 0% | 0% | 0% | 0% | caused neutropenia | 3.7% | 0% | 8.0% | 0% | 50% | 5.3% | 0% | 0% | 8.9% | 0% | 6.6% | AUC(0-t) [1, 9]: 3090 ng·h/mL; Cmax [1, 9]: 1660 ng/mL; Tmax [1, 9]: 4.98 min; major dose limiting toxicity (DLT) [6]: neutropenia; predicted in vitro IC50 [8]: about 0.2 ng/mL |
| Nc1cccc2c1C(=O)N(C1CCC(=O)NC1=O)C2=O (centres unmarked) [pomalidomide] | 9% | 27% | 8% | 0% | 0% | 0% | 0% | caused neutropenia | 0.5% | 0% | 1.4% | 0% | 12.5% | 0.9% | 0% | 28.5% | 4.4% | 0% | 0% | AUC(0-t) [1, 15]: 3080 ng·h/mL; Cmax [1, 15]: 956 ng/mL; Tmax [1, 15]: 4.98 min; % Decrease in Cell Counts from Vehicle, Lymphocytes [2, 16]: 4%; % Decrease in Cell Counts from Vehicle, Neutrophils [2, 16]: 21%; % Decrease in Cell Counts from Vehicle, Platelets [2, 16]: 10%; % Decrease in Cell Counts from Vehicle, Lymphocytes [2, 17]: 0%; % Decrease in Cell Counts from Vehicle, Neutrophils [2, 17]: 0%; % Decrease in Cell Counts from Vehicle, Platelets [2, 17]: 0%; % Max Body Weight Loss ([2]; pomalidomide 10 mg/kg IP QD days 1-14, alone or with filanesib 12.5 mg/kg IP days 1 and 2): 0% |
